According to patent publication US12091426B2, “Bifunctional degraders of hematopoietic progenitor kinase and therapeutic uses thereof” (Nurix Therapeutics, Inc., priority 2021, dated 2024):

Molecular target: T1, HPK1 (Homo sapiens, UniProt Q92918)
T1 construct: A HiBiT tag was introduced by CRISPR on the N terminus of HPK1 in Jurkat cells; host or cells: Jurkat cells (ATCC TIB-152), monoclonal line with CRISPR knock-in of HiBiT at the endogenous HPK1 locus
Assay: HPK1 Cellular HiBit Degradation Assay
Assay type: cell-based
Conditions: HiBiT HPK1 Jurkat cells, 24 hrs; for DC50: concentration at which 50% of HPK1 was remaining, read-out: DC50 Category; for Dmax: Jurkat, maximum degradation vs DMSO vehicle control, read-out: Dmax Category
Summary of the method: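 HPK1 levels are read by HiBiT luminescence after 24 h exposure of HiBiT-knock-in Jurkat cells to compound at 10 uM–0.1 nM final (11 points). Relative to DMSO (100%), DC50 is the concentration leaving 50% HPK1 from a variable-slope fit, and Dmax is 100 minus minimum remaining. Viability checked in-plate.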

T1 sequence (Q92918 whole entry): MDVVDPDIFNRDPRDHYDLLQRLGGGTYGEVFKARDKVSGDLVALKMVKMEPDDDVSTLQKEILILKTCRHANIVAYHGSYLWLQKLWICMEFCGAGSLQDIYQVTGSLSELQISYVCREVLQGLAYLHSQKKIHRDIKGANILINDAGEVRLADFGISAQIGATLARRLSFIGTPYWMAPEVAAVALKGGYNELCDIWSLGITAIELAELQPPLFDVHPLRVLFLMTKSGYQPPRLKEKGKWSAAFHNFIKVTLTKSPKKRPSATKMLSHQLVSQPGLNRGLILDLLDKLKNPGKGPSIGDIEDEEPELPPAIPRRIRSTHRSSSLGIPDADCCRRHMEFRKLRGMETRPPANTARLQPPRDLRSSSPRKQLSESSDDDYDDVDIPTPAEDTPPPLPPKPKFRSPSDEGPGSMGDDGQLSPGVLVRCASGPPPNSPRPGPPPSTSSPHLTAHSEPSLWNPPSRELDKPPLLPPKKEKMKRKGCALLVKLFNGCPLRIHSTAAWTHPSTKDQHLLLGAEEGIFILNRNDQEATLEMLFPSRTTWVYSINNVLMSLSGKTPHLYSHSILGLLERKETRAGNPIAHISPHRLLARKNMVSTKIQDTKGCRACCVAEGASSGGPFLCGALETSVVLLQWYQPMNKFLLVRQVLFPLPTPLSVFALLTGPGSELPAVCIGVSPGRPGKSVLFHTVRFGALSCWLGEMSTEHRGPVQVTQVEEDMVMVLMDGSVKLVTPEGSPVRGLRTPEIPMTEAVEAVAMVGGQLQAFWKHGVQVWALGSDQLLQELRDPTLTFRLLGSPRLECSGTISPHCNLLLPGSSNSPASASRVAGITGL

| SMILES | DC50 [nM] | Dmax [%] |
| --- | --- | --- |
| CC(C)n1cnc2cc(-c3ccc4c(c3)N([C@H]3C[C@@H](N5CCCCC5)C3)C(=O)C43CCN(C(=O)C4(C)CCN(C(=O)C5CCN(c6ccc(C7CCC(=O)NC7=O)cc6)CC5)CC4)CC3)nc(Nc3ccccc3F)c21 (mixture of isomers) [Example 110, (3RS)-3-[4-(4-{4-[(6-{4-[(2-fluorophenyl)amino]-3-(propan-2-yl)-3H-imidazo[4,5-c]pyridin-6-yl}-2-oxo-1-[(1S,3S)-3-(piperidin-1-yl)cyclobutyl]-1,2-dihydrospiro[indole-3,4′-piperidin]-1′-yl)carbonyl]-4-methylpiperidine-1-carbonyl}piperidin-1-yl)phenyl]piperidine-2,6-dione] | < 100 | > 85 |
| CC(C)n1cnc2cc(-c3ccc4c(c3)N([C@H]3C[C@@H](N5CCCCC5)C3)C(=O)C43CCN(C(=O)C4(C)CCN(C(=O)C5CCN(c6ccc7c(c6)C(=O)N(C6CCC(=O)NC6=O)C7=O)CC5)CC4)CC3)nc(Nc3ccccc3F)c21 (stereo partly drawn) [Example 122, 2-(2,6-dioxopiperidin-3-yl)-5-(4-{4-[(6-{4-[(2-fluorophenyl)amino]-3-(propan-2-yl)-3H-imidazo[4,5-c]pyridin-6-yl}-2-oxo-1-[(1S,3S)-3-(piperidin-1-yl)cyclobutyl]-1,2-dihydrospiro[indole-3,4′-piperidin]-1′-yl)carbonyl]-4-methylpiperidine-1-carbonyl}piperidin-1-yl)-2,3-dihydro-1H-isoindole-1,3-dione] | 100 to 500 | 70 to 85 |
| CC(C)n1cnc2cc(-c3ccc4c(c3)N([C@H]3C[C@@H](N5CCCCC5)C3)C(=O)C43CCN(C(=O)C4(C)CCN(C(=O)C[C@H]5CCN(c6ccc(C7CCC(=O)NC7=O)cn6)C5)CC4)CC3)nc(NC3CC3)c21 (stereo partly drawn) [Example 154, 3-{6-[(3R)-3-{2-[4-({6-[4-(cyclopropylamino)-3-isopropylimidazo[4,5-c]pyridin-6-yl]-2-oxo-1-[(1S,3S)-3-(piperidin-1-yl)cyclobutyl]spiro[indole-3,4′-piperidin]-1′-yl}carbonyl)-4-methylpiperidin-1-yl]-2-oxoethyl}pyrrolidin-1-yl]pyridin-3-yl}piperidine-2,6-dione] | 100 to 500 | 50 to 70 |
| CC(C)n1cnc2cc(-c3ccc4c(c3)N([C@H]3C[C@@H](N5CCCCC5)C3)C(=O)C43CCN(C(=O)C4(C)CCN(C(=O)C5C6CCC5CN(c5ccc(N7CCC(=O)NC7=O)cn5)C6)CC4)CC3)nc(NC3CC3)c21 (some centres unmarked) [Example 155] | < 100 | 70 to 85 |
| CC(C)n1cnc2cc(-c3ccc4c(c3)N([C@H]3C[C@@H](N5CCCCC5)C3)C(=O)C43CCN(C(=O)C4CCN(CCC5CCN(c6ccc(C7CCC(=O)NC7=O)cn6)CC5)CC4)CC3)nc(Nc3ccccc3F)c21 (mixture of isomers) [Example 98, (3RS)-3-{6-[4-(2-{4-[(6-{4-[(2-fluorophenyl)amino]-3-(propan-2-yl)-3H-imidazo[4,5-c]pyridin-6-yl}-2-oxo-1-[(1S,3S)-3-(piperidin-1-yl)cyclobutyl]-1,2-dihydrospiro[indole-3,4′-piperidin]-1′-yl)carbonyl]piperidin-1-yl}ethyl)piperidin-1-yl]pyridin-3-yl}piperidine-2,6-dione] | 500 to 1000 | > 85 |
| CC(C)n1cnc2cc(-c3ccc4c(c3)N([C@H]3C[C@@H](N5CCCCC5)C3)C(=O)C43CCN(C(=O)C4CCN(C(=O)[C@H]5CC[C@H](N(C)c6ccc(C7CCC(=O)NC7=O)cn6)CC5)CC4)CC3)nc(NC3CC3)c21 (mixture of isomers) [Example 130, (3RS)-3-(6-{methyl[(1R,4R)-4-[4-({6-[4-(cyclopropylamino)-3-(propan-2-yl)-3H-imidazo[4,5-c]pyridin-6-yl]-2-oxo-1-[(1S,3S)-3-(piperidin-1-yl)cyclobutyl]-1,2-dihydrospiro[indole-3,4′-piperidin]-1′-yl}carbonyl)piperidine-1-carbonyl]cyclohexyl]amino}pyridin-3-yl)piperidine-2,6-dione] | < 100 | 50 to 70 |
| CC(C)n1cnc2cc(-c3ccc4c(c3)N([C@H]3C[C@@H](N5CCCCC5)C3)C(=O)C43CCN(C(=O)C4(C)CCN(C(=O)C5CCN(c6ccc(C7CCC(=O)NC7=O)cn6)CC5)CC4)CC3)nc(NC3CC4(COC4)C3)c21 (stereo partly drawn) [Example 177, 3-(6-{4-[4-methyl-4-({6-[4-({2-oxaspiro[3.3]heptan-6-yl}amino)-3-(propan-2-yl)-3H-imidazo[4,5-c]pyridin-6-yl]-2-oxo-1-[(1S,3S)-3-(piperidin-1-yl)cyclobutyl]-1,2-dihydrospiro[indole-3,4′-piperidin]-1′-yl}carbonyl)piperidine-1-carbonyl]piperidin-1-yl}pyridin-3-yl)piperidine-2,6-dione] | < 100 | 70 to 85 |
| CC(C)n1cnc2cc(-c3ccc4c(c3)N([C@H]3C[C@@H](N5CCCCC5)C3)C(=O)C43CCN(C(=O)C4(C)CCN(C(=O)[C@H]5CC[C@H](Oc6ccc(C7CCC(=O)NC7=O)cc6)CC5)CC4)CC3)nc(Nc3ccccc3F)c21 (mixture of isomers) [Example 102, (3RS)-3-(4-{[(1R,4R)-4-{4-[(6-{4-[(2-fluorophenyl)amino]-3-isopropylimidazo[4,5-c]pyridin-6-yl}-2-oxo-1-[(1S,3S)-3-(piperidin-1-yl)cyclobutyl]spiro[indole-3,4′-piperidin]-1′-yl)carbonyl]-4-methylpiperidine-1-carbonyl}cyclohexyl]oxy}phenyl)piperidine-2,6-dione] | < 100 | > 85 |
| CC(C)n1cnc2cc(-c3ccc4c(c3)N([C@H]3C[C@@H](N5CCCCC5)C3)C(=O)C43CCN(C(=O)C4CCN(C(=O)CN5CCN(c6ccc(C7CCC(=O)NC7=O)cn6)CC5)CC4)CC3)nc(NC3CC3)c21 (mixture of isomers) [Example 94, (3RS)-3-[6-(4-{2-[4-({6-[4-(cyclopropylamino)-3-(propan-2-yl)-3H-imidazo[4,5-c]pyridin-6-yl]-2-oxo-1-[(1S,3S)-3-(piperidin-1-yl)cyclobutyl]-1,2-dihydrospiro[indole-3,4′-piperidin]-1′-yl}carbonyl)piperidin-1-yl]-2-oxoethyl}piperazin-1-yl)pyridin-3-yl]piperidine-2,6-dione] | < 100 | 50 to 70 |
| CC(C)n1cnc2cc(-c3ccc4c(c3)N([C@H]3C[C@@H](N5C6CCC5COC6)C3)C(=O)C43CCN(C(=O)C4(C)CCN(C(=O)C5CCN(c6ccc(C7CCC(=O)NC7=O)cn6)CC5)CC4)CC3)nc(NC3CC3)c21 (mixture of isomers) [Example 215, (3RS)-3-(6-{4-[4-({6-[4-(cyclopropylamino)-3-(propan-2-yl)-3H-imidazo[4,5-c]pyridin-6-yl]-2-oxo-1-[(1S,3S)-3-{3-oxa-8-azabicyclo[3.2.1]octan-8-yl}cyclobutyl]-1,2-dihydrospiro[indole-3,4′-piperidin]-1′-yl}carbonyl)-4-methylpiperidine-1-carbonyl]piperidin-1-yl}pyridin-3-yl)piperidine-2,6-dione] | < 100 | 70 to 85 |
